Test results taken from patent US9290487B2, “Pharmaceutical composition for treating diabetes” (Ajinomoto Co., Inc., priority 2011, dated 2016).
Where a name gives a salt, the structure may show the parent alone. Read-outs that look alike come from different tables or passages of the source.

Tests used:
[1] = target: PPAR-α (Homo sapiens (Human), UniProt Q07869); experiment: Measurement of PPAR-α activity (GAL4 luciferase reporter assay in CV-1 cells); type: cell-based; settings: 100(A/B), B = compound in WO/2011/058154 at 100 μM, read-out: PPARα relative fold induction (%)
Chain of PPAR-α (Q07869 167-468): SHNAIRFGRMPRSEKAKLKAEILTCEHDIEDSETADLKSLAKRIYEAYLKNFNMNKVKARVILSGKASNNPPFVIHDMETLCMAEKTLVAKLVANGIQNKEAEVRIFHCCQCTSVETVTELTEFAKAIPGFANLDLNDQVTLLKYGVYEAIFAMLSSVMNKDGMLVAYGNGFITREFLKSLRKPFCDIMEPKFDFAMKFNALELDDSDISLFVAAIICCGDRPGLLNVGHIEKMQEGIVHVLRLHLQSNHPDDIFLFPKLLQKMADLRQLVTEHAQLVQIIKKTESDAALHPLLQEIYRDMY
Procedure: The PPAR-α activity was measured according to the published article (THE JOURNAL OF BIOLOGICAL CHEMISTRY Vol. 270, No. 22, 12953-12956, 1995).
Plasmids used for the PPAR-α activity measurement were constructed as follows. A luciferase expression plasmid (UASx5-TK-Luc) used was obtained by introducing a sequence, in which five yeast GAL4-binding sequences are linked in tandem, upstream of a thymidine kinase promoter of pTAL-Luc (Takara Bio Inc., 6252-1). A PPAR-α receptor expression plasmid (hGR-GAL4-hPPARα) used was obtained by introducing a human GR N-terminal region (1-76 aa), a yeast GAL4 DNA-binding region (1-147 aa), and a PPARα ligand-binding region (167-468 aa) between a Not I site and a Sal I site of pExchange-1 Core Vector (Invitrogen Corporation, 211176).
A reporter assay was conducted by the following method using Cercopithecus aethiops kidney-derived CV-1 cells. The CV-1 cells were seeded in a 96-well plate (Thermo Fisher Scientific Inc., 4938) at 2×10^4 cells/well using a 10% FBS-containing DMEM (Nacalai Tesque, Inc., 0845874) medium. After culturing under conditions of 37° C. and 5% CO2 for 2 hours, the plasmids were transfected. Lipofectamine LTX (Invitrogen Corporation, 15338-100) was used for the transfection according to the attached manual. The plasmid solution was prepared by adding a mixture solution of the luciferase expression plasmid and the PPAR-α receptor expression plasmid to OPTI-MEM I (Invitrogen Corporation, 11058-021). After the transfection was conducted, the test compound was added, and cultured at 37° C. in the presence of 5% CO2 for 18 to 20 hours. After the culturing was completed, the luciferase activity was measured with Luminescensor JNR (ATTO) using Bright-Glo (Promega Corporation, E2620).
The fold induction of PPAR-α by the test compounds was calculated by the following method. For the compounds of Examples 1, 4, 5, 7, and 9, PPAR-α relative fold induction (%) was defined as 100 (A/B), where A represents the maximum value of PPAR-α activities with the test compound at 0.3 μM, 1 μM, 3 μM, 10 μM, 30 μM, and 100 μM, and B represents the PPAR-α activity with the compound in WO/2011/058154 at 100 μM. For the compounds of Examples 11, 15, 19, 22, 26, and 32, PPAR-α relative fold induction (%) was defined as 100 (A/B), where A represents the maximum value of PPAR-α activities with the test compound at 3 μM, 10 μM, 30 μM, and 100 μM, and B represents the PPAR-α activity with the compound in WO/2011/058154 at 100 μM.

[2] = target: human GYS1 (glycogen synthase) (Homo sapiens (Human), UniProt P13807); experiment: Measurement of glycogen synthase activity (coupled pyruvate kinase/lactate dehydrogenase assay, absorbance at 340 nm); type: biochemical; settings: concentration inducing relative activity of 50% (100% = Ex. 1 of WO/2011/058154 at 10 μM)
Chain of human GYS1 (glycogen synthase) (P13807 whole entry): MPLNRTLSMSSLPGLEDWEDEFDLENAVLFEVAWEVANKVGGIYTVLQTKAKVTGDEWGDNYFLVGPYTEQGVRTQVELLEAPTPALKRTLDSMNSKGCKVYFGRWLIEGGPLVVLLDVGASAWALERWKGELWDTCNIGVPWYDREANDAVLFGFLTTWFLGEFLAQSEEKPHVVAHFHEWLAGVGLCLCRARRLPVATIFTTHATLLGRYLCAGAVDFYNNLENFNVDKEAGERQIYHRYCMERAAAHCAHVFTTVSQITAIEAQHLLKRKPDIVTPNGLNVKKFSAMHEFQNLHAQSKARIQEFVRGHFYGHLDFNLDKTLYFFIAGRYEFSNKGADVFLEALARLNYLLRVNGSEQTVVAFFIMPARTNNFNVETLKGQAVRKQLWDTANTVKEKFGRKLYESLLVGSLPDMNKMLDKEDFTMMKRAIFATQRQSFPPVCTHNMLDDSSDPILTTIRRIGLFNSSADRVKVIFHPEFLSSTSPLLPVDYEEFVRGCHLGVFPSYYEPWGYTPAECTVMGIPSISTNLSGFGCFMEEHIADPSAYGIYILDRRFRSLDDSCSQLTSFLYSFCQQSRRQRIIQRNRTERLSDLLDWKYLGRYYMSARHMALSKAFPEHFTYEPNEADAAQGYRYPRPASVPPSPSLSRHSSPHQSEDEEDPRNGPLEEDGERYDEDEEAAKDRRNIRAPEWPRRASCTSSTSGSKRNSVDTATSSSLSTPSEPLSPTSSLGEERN
How it was run: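 GYS1 expressed in HEK293T cells, with the lysate pellet used as enzyme. Reaction with glucose-6-phosphate, glycogen, UDP-glucose, PEP and NADH, pH 7.3, incubated 30° C for 25 min or 37° C for 20 min, then A340 read. EC50 relative to a reference activator at 10 μM set as 100%.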

[3] = A = maximum activity at 0.3, 1, 3, 10, 30 and 100 μM
[4] = incubation at 30° C. for 25 minutes (Examples 1 to 10)
[5] = A = maximum activity at 3, 10, 30 and 100 μM
[6] = incubation at 37° C. for 20 minutes (Examples 11 to 75)
[7] = test concentrations not stated for these examples

| SMILES | Emax [1, 3] [%] | EC50 [2, 4] [µM] | Emax [1, 5] [%] | EC50 [2, 6] [µM] | Emax [1, 7] [%] |
| --- | --- | --- | --- | --- | --- |
| N#CCNc1cc(-c2ccc(OCc3cccc(C(=O)N4CCC[C@H]4C(=O)O)c3)cc2)cc(F)c1F [compound of Ex. 42, 1-{3-[({3′-[(cyanomethyl)amino]-4′,5′-difluorobiphenyl-4-yl}oxy)methyl]benzoyl}-L-proline trifluoroacetic acid salt] |  |  |  | 0.054 | 13 |
| N#Cc1coc2c(-c3ccc(OCc4cccc(C(=O)N5CCC[C@H]5C(=O)O)c4)cc3)cc(F)c(F)c12 [compound of Ex. 53] |  |  |  | 0.61 | 15 |
| CC1(C)Cc2cc(F)cc(-c3ccc(OCc4cccc(C(=O)N5CCC[C@H]5C(=O)O)c4)cc3)c2O1 [compound of Ex. 22, 1-(3-{[4-(5-fluoro-2,2-dimethyl-2,3-dihydro-1-benzofuran-7-yl)phenoxy]methyl}benzoyl)-L-proline] |  |  | 15 | 0.18 |  |
| COC(=O)c1cc(F)c(F)cc1-c1ccc(OCc2cccc(C(=O)N3CCC[C@H]3C(=O)O)c2)cc1 [compound of Ex. 44, 1-[3-({[4′,5′-difluoro-2′-(methoxycarbonyl)biphenyl-4-yl]oxy}methyl)benzoyl]-L-proline] |  |  |  | 0.81 | 10 |
| N#CCSc1cc(F)c(F)cc1-c1ccc(OCc2cccc(C(=O)N3CCC[C@H]3C(=O)O)c2)cc1 [compound of Ex. 71, 1-{3-[({2′-[(cyanomethyl)thio]-4′,5′-difluorobiphenyl-4-yl}oxy)methyl]benzoyl}-L-proline] |  |  |  | 0.038 | 8.6 |
| N#CCCSc1cc(F)c(F)cc1-c1ccc(OCc2cccc(C(=O)N3CCC[C@H]3C(=O)O)c2)cc1 [compound of Ex. 72, 1-{3-[({2′-[(2-cyanoethyl)thio]-4′,5′-difluorobiphenyl-4-yl}oxy)methyl]benzoyl}-L-proline] |  |  |  | 0.19 | 15 |
| O=C(O)[C@@H]1CCCN1C(=O)c1cccc(COc2ccc(-c3cc(F)c(F)c4cc(/C=N/O)oc34)cc2)c1 [compound of Ex. 58, 1-{3-[(4-{4,5-difluoro-2-[(hydroxyimino)methyl]-1-benzofuran-7-yl}phenoxy)methyl]benzoyl}-L-proline] |  |  |  | 0.045 | 19 |

The next lines start with the values.

| Emax [1, 3] [%] | EC50 [2, 4] [µM] | Emax [1, 5] [%] | EC50 [2, 6] [µM] | Emax [1, 7] [%] | SMILES |
| --- | --- | --- | --- | --- | --- |
| 10 | 0.26 |  |  |  | O=C(O)[C@@H]1CCCN1C(=O)c1cccc(COc2ccc(-c3cc(F)cc4c3OCC4)cc2)c1 [compound of Ex. 1, 1-(3-{[4-(5-fluoro-2,3-dihydro-1-benzofuran-7-yl)phenoxy]methyl}benzoyl)-L-proline] |
|  |  | 12 | 0.031 |  | O=C(O)[C@@H]1CCCN1C(=O)c1cccc(COc2ccc(-c3cc(F)c(F)c4c3OCC4)cc2)c1 [compound of Ex. 19, 1-(3-{[4-(4,5-difluoro-2,3-dihydro-1-benzofuran-7-yl)phenoxy]methyl}benzoyl)-L-proline] |
| 17 | 0.25 |  |  |  | O=C(O)[C@@H]1CCCN1C(=O)c1cccc(COc2ccc(-c3cccc4c3OCO4)cc2)c1 [compound of Ex. 4, 1-(3-{[4-(1,3-benzodioxol-4-yl)phenoxy]methyl}benzoyl)-L-proline] |
| 10 | 0.5 |  |  |  | O=C(O)[C@@H]1CCCN1C(=O)c1cccc(COc2ccc(-c3cccc4c3OCC4)cc2)c1 [compound of Ex. 5] |
|  |  |  | 0.11 | 10 | O=C(O)[C@@H]1CCCN1C(=O)c1cccc(COc2ccc(-c3cc(F)c(F)cc3S)cc2)c1 [compound of Ex. 40, 1-(3-{[(4′,5′-difluoro-2′mercaptobiphenyl-4-yl)oxy]methyl}benzoyl)-L-proline] |
|  |  | 3 | 0.75 |  | O=C1COc2c(cccc2-c2ccc(OCc3cccc(C(=O)N4CCC[C@H]4C(=O)O)c3)cc2)N1 [compound of Ex. 32, 1-(3-{[4-(3-oxo-3,4-dihydro-2H-1,4-benzoxazin-8-yl)phenoxy]methyl}benzoyl)-L-proline] |
|  |  | 13 | 0.16 |  | O=C(O)[C@@H]1CCCN1C(=O)c1cccc(COc2ccc(-c3cccc4[nH]ccc34)cc2)c1 [compound of Ex. 26, 1-(3-{[4-(1H-indol-4-yl)phenoxy]methyl}benzoyl)-L-proline] |
